pKi: −log10 of the molar value. “Also recorded” adds a separate entry of the source.
How the values were obtained:
[1] = molecular target: T1, E. coli glucosamine synthase GlmS*54 (Escherichia coli, UniProt P17169, A39T/G472S/R250C); assay: Effects of phosphorylated sugars on glucosamine synthase; assay type: biochemical
T1 construct: made in house; host or cells: E. coli 7107-18 (printed '7017-18'; T7-glmS*54 integrated at galK) and strains derived from it; crude extract
Experimental: (§1) Glucosamine synthetase activity was examined in the presence of various phosphorylated sugars. Crude enzyme extracts was prepared from cells of 7017-18 grown in shake flasks for 24 hours with lactose induction.

[2] = molecular target: E. coli GlmS mutant GlmS*110 (Escherichia coli, UniProt P17169); assay: GlmS inhibition and Michaelis-Menten kinetics; assay type: biochemical; details: read-out: Ki (GlcN-6-P)
Experimental: (§2) Different glucosamine synthetase enzymes, including native B. subtillus GlmS, native E. coli GlmS and mutant E. coli GlmS, were studied in vitro. Cells of various E. coli strains were grown in the M9A medium, harvested, and frozen. Cells extracts were prepared and the glucosamine synthetases were characterized and compared.
(§3) Enzyme sensitivities to the reaction product glucosamine-6-P were examined. […] This figure highlights the dramatic difference between the wild type GlmS and these mutant GlmS strains.
(§4) The Mutants 2123-54 and the B. subtilis enzyme have higher Ki values (Table 6). Measured Ki constants for several of these mutants are 4 to 8 times the value for the native enzyme in strain 2123-12. From shake flask studies it is apparent that decreased sensitivity to glucosamine-6-P allows higher glucosamine levels to accumulate.
(§5) These values are slightly higher than those obtained with the native enzyme.

[3] = molecular target: T2, E. coli GlmS mutant GlmS*72, SEQ ID NO:14 (Glu15Lys, Asp387Val, Ser450Pro, Glu525Gly) (strain 2123-72) (Escherichia coli, UniProt P17169, D387V/E15K/E525G/S450P); assay: GlmS inhibition and Michaelis-Menten kinetics; assay type: biochemical
T2 construct: made in house; host or cells: E. coli strain 2123-72 (from 7101-17(DE3), plasmid with glmS*72 integrated), cell extract
Experimental: as §2, §3, §4, §5

[4] = molecular target: T3, E. coli GlmS mutant GlmS*124, SEQ ID NO:8 (Leu469Pro) (strain 2123-124) (Escherichia coli, UniProt P17169, L469P); assay: GlmS inhibition and Michaelis-Menten kinetics; assay type: biochemical
T3 construct: made in house; host or cells: E. coli strain 2123-124, cell extract
Experimental: as §2, §3, §4, §5

[5] = molecular target: E. coli GlmS mutant GlmS*69 (Escherichia coli, UniProt P17169); assay: GlmS inhibition and Michaelis-Menten kinetics; assay type: biochemical; details: read-out: Ki (GlcN-6-P)
Experimental: as §2, §3, §4, §5

[6] = molecular target: T4, E. coli GlmS (glucosamine-6-phosphate synthase), wild type, SEQ ID NO:2 (strain 2123-12) (Escherichia coli, UniProt P17169); assay: GlmS (glucosamine synthase) inhibition and Michaelis-Menten kinetics, crude extract of strain 2123-12; assay type: biochemical
T4 construct: made in house; host or cells: E. coli strain 2123-12 (T7-glmS integrated in the chromosome), crude cell extract
Experimental: as §2, §3, §4, §5

[7] = molecular target: E. coli glucosamine synthase GlmS*54, SEQ ID NO:6 (Ala39Thr, Arg250Cys, Gly472Ser) (Escherichia coli, UniProt P17169, A39T/G472S/R250C); assay: Effects of phosphorylated sugars on glucosamine synthase, crude extract of lactose-induced 7107-18 cells; assay type: biochemical; details: 10 mM or relatively high concentration
Experimental: as §1

[8] = test system: phosphoglucoisomerase (Pgi); assay: Effect of phosphorylated amino sugars on phosphoglucoisomerase activity (FIG. 15); assay type: biochemical; details: in vitro
Excerpt: Therefore, effects of glucosamine-6-P and N-acetylglucosamine-6-P on several of the enzymes were examined.

[9] = molecular target: T5, E. coli GlmS mutant GlmS*54, SEQ ID NO:6 (Ala39Thr, Arg250Cys, Gly472Ser) (strain 2123-54) (Escherichia coli, UniProt P17169, A39T/G472S/R250C); assay: GlmS inhibition and Michaelis-Menten kinetics, crude extract of strain 2123-54; assay type: biochemical
T5 construct: made in house; host or cells: E. coli strain 2123-54 (lacZ::T7-glmS*54), crude cell extract
T5 sequence (P17169 2-609 A39T/R250C/G472S): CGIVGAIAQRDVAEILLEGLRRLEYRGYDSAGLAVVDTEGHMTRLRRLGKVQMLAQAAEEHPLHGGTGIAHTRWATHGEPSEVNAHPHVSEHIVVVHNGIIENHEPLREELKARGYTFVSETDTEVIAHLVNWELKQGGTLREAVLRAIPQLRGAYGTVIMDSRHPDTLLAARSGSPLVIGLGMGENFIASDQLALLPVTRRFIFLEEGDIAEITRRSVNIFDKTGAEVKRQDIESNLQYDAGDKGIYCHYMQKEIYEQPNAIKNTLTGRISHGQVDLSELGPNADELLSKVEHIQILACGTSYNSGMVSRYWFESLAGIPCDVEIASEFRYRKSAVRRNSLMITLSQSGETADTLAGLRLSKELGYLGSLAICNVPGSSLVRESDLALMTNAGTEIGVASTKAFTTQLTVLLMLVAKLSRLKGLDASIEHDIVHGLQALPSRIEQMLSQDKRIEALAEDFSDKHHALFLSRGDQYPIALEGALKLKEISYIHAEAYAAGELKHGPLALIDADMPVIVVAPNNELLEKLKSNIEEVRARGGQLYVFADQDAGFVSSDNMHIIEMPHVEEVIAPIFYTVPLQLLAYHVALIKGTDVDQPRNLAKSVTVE
Experimental: as §2, §3, §4, §5

[10] = molecular target: E. coli GlmS mutant GlmS*64 (strain 2123-64) (Escherichia coli, UniProt P17169); assay: GlmS sensitivity to inhibition by glucosamine-6-P; assay type: biochemical; details: 0-30 mM glucosamine-6-P; FIG. 5
Experimental: as §2, §3

[11] = molecular target: E. coli GlmS mutant GlmS*59 (strain 2123-59) (Escherichia coli, UniProt P17169); assay: GlmS sensitivity to inhibition by glucosamine-6-P; assay type: biochemical; details: 0-30 mM glucosamine-6-P; FIG. 5
Experimental: as §2, §3

[12] = molecular target: E. coli GlmS mutant GlmS*4 (strain 2123-4) (Escherichia coli, UniProt P17169); assay: GlmS sensitivity to inhibition by glucosamine-6-P; assay type: biochemical; details: 0-30 mM glucosamine-6-P; FIG. 5
Experimental: as §2, §3

[13] = molecular target: T6, Bacillus subtilis GlmS, wild type, SEQ ID NO:16 (Bacillus subtilis, UniProt P0CI73); assay: biochemical
T6 construct: made in house; host or cells: E. coli 7107-24 (7101-17(DE3) with pET24d(+)/B. subtilis glmS from ATCC23856), crude cell extract
Experimental: as §2
Enzyme sensitivities to the reaction product glucosamine-6-P were examined.

[14] = molecular target: glucose-6-P dehydrogenase (zwf) (Escherichia coli, UniProt P0AC53, A9V); assay: Effect of phosphorylated amino sugars on glucose-6-P dehydrogenase; assay type: biochemical; details: in vitro, FIG. 16
[15] = molecular target: phosphoglucoisomerase (Pgi) (Escherichia coli, UniProt P0A6T1); details: literature; cited from earlier work
[16] = test system: phosphoglucoisomerase (Pgi); details: cited from earlier work
[17] = 0-30 mM glucosamine-6-P, FIG. 5

T2 sequence (P17169 2-609 E15K/D387V/S450P/E525G): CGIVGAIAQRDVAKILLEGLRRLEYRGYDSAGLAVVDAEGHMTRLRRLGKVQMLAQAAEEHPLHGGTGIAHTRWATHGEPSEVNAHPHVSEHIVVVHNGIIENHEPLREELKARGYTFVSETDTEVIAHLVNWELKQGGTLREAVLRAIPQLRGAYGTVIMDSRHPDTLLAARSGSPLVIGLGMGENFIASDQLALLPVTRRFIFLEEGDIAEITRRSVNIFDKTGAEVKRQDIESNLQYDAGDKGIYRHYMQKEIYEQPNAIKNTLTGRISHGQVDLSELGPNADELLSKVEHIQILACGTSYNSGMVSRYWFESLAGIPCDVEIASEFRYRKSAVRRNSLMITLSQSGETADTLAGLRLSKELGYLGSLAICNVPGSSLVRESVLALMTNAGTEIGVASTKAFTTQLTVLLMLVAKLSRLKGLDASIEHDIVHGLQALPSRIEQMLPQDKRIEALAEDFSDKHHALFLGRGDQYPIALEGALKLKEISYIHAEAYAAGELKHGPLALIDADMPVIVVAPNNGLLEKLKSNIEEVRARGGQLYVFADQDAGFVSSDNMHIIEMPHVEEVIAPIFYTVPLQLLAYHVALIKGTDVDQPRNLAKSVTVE
T6 sequence (P0CI73 2-600): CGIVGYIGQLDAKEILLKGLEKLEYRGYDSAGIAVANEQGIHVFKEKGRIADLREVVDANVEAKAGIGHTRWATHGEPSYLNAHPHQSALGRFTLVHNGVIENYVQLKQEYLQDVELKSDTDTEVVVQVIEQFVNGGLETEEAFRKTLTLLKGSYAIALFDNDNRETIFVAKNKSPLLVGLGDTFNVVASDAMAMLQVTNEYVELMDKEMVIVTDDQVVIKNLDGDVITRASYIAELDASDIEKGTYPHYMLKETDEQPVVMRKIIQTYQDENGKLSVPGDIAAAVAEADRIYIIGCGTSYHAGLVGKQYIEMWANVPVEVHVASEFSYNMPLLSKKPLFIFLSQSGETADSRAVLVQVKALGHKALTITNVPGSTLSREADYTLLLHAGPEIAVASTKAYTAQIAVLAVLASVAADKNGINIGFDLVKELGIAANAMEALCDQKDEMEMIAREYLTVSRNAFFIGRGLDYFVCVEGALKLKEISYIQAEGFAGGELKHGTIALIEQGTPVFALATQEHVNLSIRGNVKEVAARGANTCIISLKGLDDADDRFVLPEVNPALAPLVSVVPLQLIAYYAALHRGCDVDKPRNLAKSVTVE
T3 sequence (P17169 2-609 L469P): as the sequence (P17169 2-609 E15K/D387V/S450P/E525G) above, with K14E, V386D, P449S, L468P, G524E counted along it
T4 sequence (P17169 2-609 limits assumed): as the sequence (P17169 2-609 E15K/D387V/S450P/E525G) above, with K14E, V386D, P449S, G524E counted along it
E. coli GlmS mutant GlmS*64 (strain 2123-64), sequence (P17169 whole entry, change not shown): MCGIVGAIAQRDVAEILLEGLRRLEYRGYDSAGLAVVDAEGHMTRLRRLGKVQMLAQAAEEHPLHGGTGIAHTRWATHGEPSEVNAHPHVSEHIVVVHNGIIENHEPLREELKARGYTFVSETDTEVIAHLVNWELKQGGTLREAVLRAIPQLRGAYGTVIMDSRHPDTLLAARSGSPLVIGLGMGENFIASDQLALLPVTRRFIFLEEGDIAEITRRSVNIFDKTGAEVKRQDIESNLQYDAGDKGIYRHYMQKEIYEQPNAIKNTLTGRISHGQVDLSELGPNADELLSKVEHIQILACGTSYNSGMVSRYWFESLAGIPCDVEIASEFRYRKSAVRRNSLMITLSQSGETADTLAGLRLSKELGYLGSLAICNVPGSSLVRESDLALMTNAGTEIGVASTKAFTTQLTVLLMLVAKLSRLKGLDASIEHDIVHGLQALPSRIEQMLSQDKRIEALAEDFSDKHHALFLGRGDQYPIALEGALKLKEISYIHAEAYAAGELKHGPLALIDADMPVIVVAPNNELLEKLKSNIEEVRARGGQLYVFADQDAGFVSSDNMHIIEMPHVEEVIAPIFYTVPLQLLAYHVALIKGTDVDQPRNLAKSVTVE
E. coli GlmS mutant GlmS*110, sequence (P17169 whole entry, stated change not applied): as the sequence (P17169 whole entry, change not shown) above
E. coli GlmS mutant GlmS*59 (strain 2123-59), sequence (P17169 whole entry, change not shown): as above
E. coli GlmS mutant GlmS*4 (strain 2123-4), sequence (P17169 whole entry, change not shown): as above
E. coli GlmS mutant GlmS*69, sequence (P17169 whole entry, change not shown): as above
glucose-6-P dehydrogenase (zwf), sequence (P0AC53 whole entry A9V): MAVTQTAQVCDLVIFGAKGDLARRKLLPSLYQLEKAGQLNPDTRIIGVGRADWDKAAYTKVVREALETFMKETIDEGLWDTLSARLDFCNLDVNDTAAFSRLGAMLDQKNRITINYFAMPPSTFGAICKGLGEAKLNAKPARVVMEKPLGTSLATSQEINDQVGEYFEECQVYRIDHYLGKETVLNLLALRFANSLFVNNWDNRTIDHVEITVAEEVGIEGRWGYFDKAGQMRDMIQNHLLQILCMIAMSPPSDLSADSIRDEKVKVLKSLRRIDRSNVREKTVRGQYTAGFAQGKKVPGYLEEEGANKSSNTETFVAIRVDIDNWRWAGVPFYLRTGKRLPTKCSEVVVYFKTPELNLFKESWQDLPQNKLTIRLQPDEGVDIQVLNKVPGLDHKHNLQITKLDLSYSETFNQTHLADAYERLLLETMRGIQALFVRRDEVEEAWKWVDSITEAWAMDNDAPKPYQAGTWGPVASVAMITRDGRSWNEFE
E. coli glucosamine synthase GlmS*54, SEQ ID NO:6 (Ala39Thr, Arg250Cys, Gly472Ser), sequence (P17169 whole entry A39T/R250C/G472S): as the sequence (P17169 whole entry, change not shown) above, with A39T, R250C, G472S counted along it
phosphoglucoisomerase (Pgi) (Escherichia coli, UniProt P0A6T1), sequence (P0A6T1 whole entry): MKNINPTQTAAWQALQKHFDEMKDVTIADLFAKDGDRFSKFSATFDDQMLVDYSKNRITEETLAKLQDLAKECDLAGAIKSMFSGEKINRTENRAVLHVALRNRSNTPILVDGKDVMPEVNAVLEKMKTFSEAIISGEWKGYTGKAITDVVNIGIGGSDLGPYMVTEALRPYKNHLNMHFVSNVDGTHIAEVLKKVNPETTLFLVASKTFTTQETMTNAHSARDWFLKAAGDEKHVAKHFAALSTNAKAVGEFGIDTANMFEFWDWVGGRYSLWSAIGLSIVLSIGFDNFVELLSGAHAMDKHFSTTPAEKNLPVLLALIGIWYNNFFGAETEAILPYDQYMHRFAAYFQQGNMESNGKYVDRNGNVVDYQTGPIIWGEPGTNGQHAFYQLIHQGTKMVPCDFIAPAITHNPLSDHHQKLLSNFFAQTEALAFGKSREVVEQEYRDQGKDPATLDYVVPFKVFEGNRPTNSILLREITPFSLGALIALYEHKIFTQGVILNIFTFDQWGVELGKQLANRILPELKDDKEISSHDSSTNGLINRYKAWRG

N[C@H]1C(O)O[C@H](COP(=O)(O)O)[C@@H](O)[C@@H]1O (stereo partly drawn) [glucosamine-6-P, glucosamine-6-phosphate]
activity at 10000 µM [1]: 70%
activity at 20000 µM [1]: 46%
inhibition of glucosamine synthetase (in words) [1]: strong inhibition
pKi [2]: 2.80
pKi [3]: 2.85
sensitivity to GlcN-6-P inhibition [3, 17]: reduced sensitivity to GlcN-6-P inhibition
pKi [4]: 2.46
sensitivity to GlcN-6-P inhibition [4, 17]: reduced sensitivity to GlcN-6-P inhibition
pKi [5]: 2.82
pKi [6]: 3.25
inhibition at 1000 µM ([6]; read-out: loss of activity at 1 mM glucosamine-6-P): ~50%
inhibition of glucosamine synthetase (in words) [7]: strong inhibition on glucosamine synthetase at relatively high concentration
inhibition of Pgi (in words) [8]: Inhibition is observed
pKi [9]: 2.40
effect of glucosamine-6-P on enzyme activity ([9]; 1 mM glucosamine-6-P, saturating substrates): essentially has no effect on enzyme activity
remaining activity at 10000 µM ([9]; read-out: activity remaining at 10 mM glucosamine-6-P): ~50%
sensitivity to GlcN-6-P inhibition [10]: reduced sensitivity to GlcN-6-P inhibition
sensitivity to GlcN-6-P inhibition [11]: reduced sensitivity to GlcN-6-P inhibition
sensitivity to GlcN-6-P inhibition [12]: reduced sensitivity to GlcN-6-P inhibition
product resistance ([13]; 0, 2 and 4 mM glucosamine-6-P, FIG. 4): product resistance very comparable to the E. coli mutant GlmS enzymes
pKi ([13]; read-out: Ki (GlcN-6-P)): 2.90
inhibition of glucose-6-P dehydrogenase (zwf) [14]: more potent inhibitor of the enzyme than N-acetylglucosamine-6-P
reported inhibitor of phosphoglucoisomerase (Pgi) [15]: inhibitor
inhibition of phosphoglucoisomerase (literature) [16]: reported as an inhibitor of Pgi; also recorded: reported as an inhibitor of phosphoglucoisomerase

— patent publication US8124381B2, “Process and materials for production of glucosamine and N-acetylglucosamine” (Arkion Life Sciences, priority 2002, dated 2012)
